Source: patent US9416115B2, “Fused heterocyclic compounds as ion channel modulators” (Gilead Sciences, Inc., priority 2013, dated 2016)

Each molecule was assayed against hNav1.7 (Homo sapiens, UniProt Q15858) (assay: Voltage-dependent inhibition of the Nav1.7 sodium channel). Settings: voltage-dependent block of peak current.
Sequence of hNav1.7 (Q15858 whole entry): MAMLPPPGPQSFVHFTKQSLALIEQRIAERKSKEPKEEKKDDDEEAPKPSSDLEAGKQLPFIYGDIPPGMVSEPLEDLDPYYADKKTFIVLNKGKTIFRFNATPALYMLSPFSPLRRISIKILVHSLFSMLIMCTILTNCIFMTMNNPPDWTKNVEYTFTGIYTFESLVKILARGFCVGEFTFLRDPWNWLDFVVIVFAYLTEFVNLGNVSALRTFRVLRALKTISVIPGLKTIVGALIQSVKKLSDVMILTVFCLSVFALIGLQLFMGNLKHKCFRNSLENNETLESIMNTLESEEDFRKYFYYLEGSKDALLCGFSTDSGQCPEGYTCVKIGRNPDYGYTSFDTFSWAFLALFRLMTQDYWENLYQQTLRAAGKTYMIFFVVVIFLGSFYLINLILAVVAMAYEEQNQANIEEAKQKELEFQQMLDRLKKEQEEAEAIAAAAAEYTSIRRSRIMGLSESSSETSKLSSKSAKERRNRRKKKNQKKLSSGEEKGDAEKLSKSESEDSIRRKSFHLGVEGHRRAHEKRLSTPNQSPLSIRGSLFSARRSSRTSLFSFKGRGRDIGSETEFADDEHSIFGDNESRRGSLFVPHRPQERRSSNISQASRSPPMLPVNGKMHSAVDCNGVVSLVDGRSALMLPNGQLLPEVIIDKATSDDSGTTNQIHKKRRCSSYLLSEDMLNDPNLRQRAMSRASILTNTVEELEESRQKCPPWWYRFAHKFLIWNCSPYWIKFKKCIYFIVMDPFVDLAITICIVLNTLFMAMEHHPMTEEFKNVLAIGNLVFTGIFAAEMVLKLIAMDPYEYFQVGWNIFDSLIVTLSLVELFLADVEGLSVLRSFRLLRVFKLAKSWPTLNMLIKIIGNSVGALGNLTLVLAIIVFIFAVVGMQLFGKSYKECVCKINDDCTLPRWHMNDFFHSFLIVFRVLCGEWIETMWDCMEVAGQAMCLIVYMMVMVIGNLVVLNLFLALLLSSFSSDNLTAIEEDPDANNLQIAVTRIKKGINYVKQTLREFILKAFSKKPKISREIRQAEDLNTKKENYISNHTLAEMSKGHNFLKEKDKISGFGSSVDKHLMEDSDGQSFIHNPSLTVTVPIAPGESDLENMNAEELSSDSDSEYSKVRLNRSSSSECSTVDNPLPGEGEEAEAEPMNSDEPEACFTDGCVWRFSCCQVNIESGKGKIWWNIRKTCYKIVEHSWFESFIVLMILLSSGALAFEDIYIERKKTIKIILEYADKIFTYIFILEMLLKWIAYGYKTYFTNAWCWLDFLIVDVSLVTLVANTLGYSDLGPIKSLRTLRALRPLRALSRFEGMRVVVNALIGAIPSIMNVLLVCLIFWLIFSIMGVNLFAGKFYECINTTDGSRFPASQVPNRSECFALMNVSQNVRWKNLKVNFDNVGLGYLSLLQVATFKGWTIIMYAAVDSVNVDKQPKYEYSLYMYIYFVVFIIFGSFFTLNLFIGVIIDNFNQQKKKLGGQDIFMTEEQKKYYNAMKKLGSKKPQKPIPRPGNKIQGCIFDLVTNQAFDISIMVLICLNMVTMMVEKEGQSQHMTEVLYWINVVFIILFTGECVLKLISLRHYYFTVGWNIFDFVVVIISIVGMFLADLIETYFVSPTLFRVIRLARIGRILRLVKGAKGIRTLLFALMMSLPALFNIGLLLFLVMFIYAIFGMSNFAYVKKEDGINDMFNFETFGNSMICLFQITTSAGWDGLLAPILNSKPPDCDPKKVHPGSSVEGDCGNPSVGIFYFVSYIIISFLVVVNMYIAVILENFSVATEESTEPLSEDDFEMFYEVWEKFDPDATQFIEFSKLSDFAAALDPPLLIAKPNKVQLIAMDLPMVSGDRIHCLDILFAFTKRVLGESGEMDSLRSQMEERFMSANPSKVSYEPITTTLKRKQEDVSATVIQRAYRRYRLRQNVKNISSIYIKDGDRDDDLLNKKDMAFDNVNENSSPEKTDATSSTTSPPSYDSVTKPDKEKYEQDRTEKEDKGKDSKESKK
Format: cell-based
Experimental: HEK-293 cells stably expressing wild-type (WT) hNav1.7 were obtained from Scottish Biomedical (Glasgow, Scotland, United Kingdom). Cells are maintained with standard tissue culture procedures and stable channel expression is maintained with 500 ug/mL G418 in the culture medium. Unless otherwise noted, all reagents are purchased from Sigma-Aldrich (St Louis, Mo., U.S.A.).
Assays measuring Voltage-Dependent Block (VDB) of Nav1.7 are performed on an automated electrophysiology platform, QPatch 16X or QPatch HT (Sophion Bioscience, Copenhagen, Denmark), using the whole cell patch clamp technique to measure currents through the cell membrane. Series resistance compensation is set to 100% and series resistance and whole-cell compensation are performed automatically. Currents stored in the Sophion Bioscience Oracle database (Sophion Bioscience, Copenhagen, Denmark). Analysis is performed using QPatch Assay software and data are compiled in Excel 2010 (Microsoft, Seattle, Wash., U.S.A.).
The internal (pipette) solution consists of (in mM) 105 CsF, 10 NaF, 20 CsCl, 2 EGTA, 10 HEPES, 10 Dextrose with a pH of 7.35 and osmolarity of 300 mOsmol/kg. The external (bath) solution contains in (mM): 140 NaCl, 4 KCl, 1.8 CaCl2, 1 MgCl2, 10 dextrose, 10 HEPES, with a pH of 7.35 and osmolarity of 310 mOsmol/kg. Experiments are carried out at 23-25° C.
Compound stocks are routinely made by the Gilead Sample Bank in vials to 10 mM in dimethyl sulfoxide (DMSO). In some cases, when compounds are not soluble in DMSO, they are made in 100% ethanol. Stocks are sonicated as necessary. Compounds are diluted in extracellular solution using a MicroLab Nimbus (Hamilton Robotics, Reno, Nev.) to 1 μM in glass vials and transferred to glass well plates before robotic addition to the cells.
Cells are allowed to stabilize for 10 min after establishment of the whole-cell configuration before current is measured. The test compound is applied 3 times at 120 second intervals to allow for equilibration. Currents were leak subtracted using a P/4 procedure, low-pass Bessel filtered at 5 kHz and digitized at 25 kHz. Results are presented as mean percentage inhibition.
Voltage-dependent block of Nav1.7 peak current was measured during a voltage step to 0 mV (20 ms) following a voltage step pre-conditioning steps (−60 mV for 10 sec followed by −120 mV for 10 ms). The holding potential was −120 mV and this voltage protocol induces half maximal inactivation of Nav1.7. The voltage protocol for VDB was performed every 45 seconds in the absence and presence of compound and percentage inhibition was calculated with respect to the compound free condition.
In the case of FC(F)(F)Oc1cccc(-c2ccc3onc(OCc4ncccn4)c3c2)c1 [Example 10, 3-(pyrimidin-2-ylmethoxy)-5-(3-(trifluoromethoxy)phenyl)benzo[d]isoxazole], the “Nav 1.7-VDB 1 uM” value is reported as 10.0 percentage inhibition.
COc1cc(OC(F)(F)F)ccc1-c1ccc2onc(OCc3ncccn3)c2c1 [Example 4, 5-(2-methoxy-4-(trifluoromethoxy)phenyl)-3-(pyrimidin-2-ylmethoxy)benzo[d]isoxazole] was tested, and the “Nav 1.7-VDB 1 uM” value was 28.6 percentage inhibition.
In the case of Fc1cc(C(F)(F)F)ccc1-c1ccc2onc(OCc3ncccn3)c2c1 [Example 6, 5-(2-fluoro-4-(trifluoromethyl)phenyl)-3-(pyrimidin-2-ylmethoxy)benzo[d]isoxazole], the “Nav 1.7-VDB 1 uM” value is reported as 15.6 percentage inhibition.
In the case of Cc1nnc(COc2noc3ccc(-c4ccc(OC(F)(F)F)cc4)cc23)o1 [Example 99, 3-((5-methyl-1,3,4-oxadiazol-2-yl)methoxy)-5-(4-(trifluoromethoxy)phenyl)benzo[d]isoxazole], the “Nav 1.7-VDB 1 uM” value is reported as 59.3 percentage inhibition.
